From patent US6489321B1, “Nonpeptide substituted benzothiazepines as vasopressin antagonists” (Ortho-McNeil Pharmaceutical, Inc., priority 1999, dated 2002) come the findings set out here.

In one assay the target is T1, cloned human V2 receptor (Homo sapiens, UniProt P30518).
T1 construct: expressed in transfected cells
Put plainly: In-vitro vasopressin receptor binding assay, V2. To be noted: 3H-arginine-8-vasopressin; for IC50: footnote 1: IC50 values (μM). As to the method:
Assay buffer is 50 mM Tris-Cl, 5 mM MgC12, 0.1% BSA (pH 7.5) containing 5 ug/ml of aprotinin, leupeptin, pepstatin, 50 ug/ml bacitracin, and 1 mM Pefabloc. H3 vasopressin is ^3H-arginine-8-vasopressin (68.5 Ci/mmol, final concentration in assay is 0.65-0.75nM). Into wells of 96-well round bottom polypropylene plates are added buffer, test compound, membrane (containing cloned human V2 receptor), and H3 vasopressin. The reaction plates are allowed to sit at room temperature for one hour. The samples are filtered through Unifilter GF/C plates (presoaked in 0.3 polyethyleneimine). The plates are washed 5 times with cold physiological saline containing 0.05% Tween 20. After drying, the bottom of the filter plates are sealed and 0.025 ml of Microscint-20 is added to each filter. The top of the plate is sealed, and the plate is counted. Non-specific binding is determined by the addition of 1.25 uM arginine-8-vasopressin in those wells. %Inh. is [formula]

Another assay concerns the target vasopressin V1a receptor (Homo sapiens, UniProt P37288). Kind of assay: In-vitro vasopressin receptor binding assay, V1a. As to conditions: for inhibition at 0.1 µM / inhibition at 1 µM: read-out: Receptor Binding (% Inh. @ concentration in μM) V1a; for IC50: footnote 1: IC50 values (μM).

Chain of vasopressin V1a receptor (P37288 whole entry): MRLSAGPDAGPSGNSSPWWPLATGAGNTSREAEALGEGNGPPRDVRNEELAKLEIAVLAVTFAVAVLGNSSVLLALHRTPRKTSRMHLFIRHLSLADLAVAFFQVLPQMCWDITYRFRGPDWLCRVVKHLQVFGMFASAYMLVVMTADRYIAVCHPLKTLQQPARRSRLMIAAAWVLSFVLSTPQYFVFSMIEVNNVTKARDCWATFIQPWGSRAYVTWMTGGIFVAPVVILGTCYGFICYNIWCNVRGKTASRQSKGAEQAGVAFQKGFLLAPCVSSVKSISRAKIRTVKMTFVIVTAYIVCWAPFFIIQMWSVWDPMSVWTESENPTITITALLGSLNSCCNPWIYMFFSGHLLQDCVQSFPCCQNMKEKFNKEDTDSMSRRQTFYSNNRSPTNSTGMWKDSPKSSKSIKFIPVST

As for `O=C(Nc1ccc(S(=O)(=O)N2CCC(CCO)Sc3ccccc32)cc1)c1ccccc1-c1ccccc1` (stereo not shown) [Compound 19, 2-(2-Hydroxyethyl)-5-[4-(2-phenylbenzoylamino)-benzenesulfonyl]-1,5-benzothiazepine], on cloned human V2 receptor (1 μM test compound), the “Receptor Binding (% Inh. @ concentration in μM) V2” value was found to be 27% @ 1. In addition, the “Receptor Binding (% Inh. @ concentration in μM) V1a” value on vasopressin V1a receptor (1 μM test compound) was 34% @ 1.
On to `N#CCCC1CCN(C(=O)c2ccc(NC(=O)c3ccccc3-c3ccccc3)cc2)c2ccccc2S1` (stereo not shown) [Compound 30], for which the IC50 (commonly the concentration that gives 50% inhibition) on cloned human V2 receptor was determined as 0.069 µM. The “Receptor Binding (% Inh. @ concentration in μM) V1a” value on vasopressin V1a receptor (0.1 μM test compound) is given as 34% @ .1.
As to `CC(=O)Nc1ccc(S(=O)(=O)N2CCC(CCN(C)C)Sc3ccccc32)cc1` (stereo not shown) [Compound 1], the “Receptor Binding (% Inh. @ concentration in μM) V2” value at cloned human V2 receptor (25 μM test compound) came to 7% @ 25. For the same molecule, the “Receptor Binding (% Inh. @ concentration in μM) V1a” value on vasopressin V1a receptor (25 μM test compound) is given as 14% @ 25.
`O=C(Nc1ccc(CN2C(=O)CC(CCO)Sc3ccccc32)cc1)c1ccccc1-c1ccccc1` (stereo not shown) [Compound 23, 2-(2-Hydroxyethyl)-5-(4-(2-phenylbenzoylamino)benzyl)-1,5-benzothiazepine-4-one]: the “Receptor Binding (% Inh. @ concentration in μM) V2” value on cloned human V2 receptor (1 μM test compound) was found to be 43% @ 1. The “Receptor Binding (% Inh. @ concentration in μM) V1a” value on vasopressin V1a receptor (1 μM test compound) amounted to 33% @ 1.
For the molecule `O=C(O)CCC1CCN(C(=O)c2ccc(NC(=O)c3ccccc3-c3ccccc3)cc2)c2ccccc2S1` (stereo not shown) [Compound 31], the IC50 at cloned human V2 receptor is 0.009 µM. Besides, the inhibition at 0.1 µM at vasopressin V1a receptor (0.1 μM test compound) is 30%.
In the case of “2-(2-Methanesulfonylethyl)-5-(4-(2-methylbenzoylamino)benzoyl)-1,5-benzothiazepine [Compound 13]”, the IC50 on cloned human V2 receptor came out at 0.2 µM; on vasopressin V1a receptor, 0.3 µM.
`O=C(Nc1ccc(C(=O)N2CCC(CCO)Sc3ccccc32)cc1)c1ccccc1-c1ccccc1` (stereo not shown) [Compound 17]: the figures for the IC50 at cloned human V2 receptor and on vasopressin V1a receptor were 0.008 µM and 0.097 µM, respectively.
The molecule “2-(2-Hydroxyethyl)-5-(4-(2-phenylbenzoylamino)-pyridinoyl)-1,5-benzothiazepine [Compound 40]” came in with an IC50 on cloned human V2 receptor of 0.03 µM. In addition, the “Receptor Binding (% Inh. @ concentration in μM) V1a” value on vasopressin V1a receptor (0.1 μM test compound) was determined as 22% @ .1.
With `CNCCC1CCN(C(=O)c2ccc(NC(=O)c3ccccc3C)cc2)c2ccccc2S1` (stereo not shown) [Compound 14], at cloned human V2 receptor (1 μM test compound), the “Receptor Binding (% Inh. @ concentration in μM) V2” value turned out to be 28% @ 1. In addition, the “Receptor Binding (% Inh. @ concentration in μM) V1a” value at vasopressin V1a receptor (1 μM test compound) is 50% @ 1.
For `Cc1ccccc1C(=O)Nc1ccc(CN2C(=O)CC(CCN)Sc3ccccc32)cc1` (stereo not shown) [Compound 7, 2-(2-Aminoethyl)-5-[4-(2-methylbenzoylamino)-benzyl]-1,5-benzothiazepine-4-one], the “Receptor Binding (% Inh. @ concentration in μM) V2” value at cloned human V2 receptor (10 μM test compound) was found to be 4% @ 10. On vasopressin V1a receptor (10 μM test compound), the “Receptor Binding (% Inh. @ concentration in μM) V1a” value came to 10% @ 10.
`Cc1ccccc1C(=O)Nc1ccc(S(=O)(=O)N2CCC(CCO)Sc3ccccc32)cc1` (stereo not shown) [Compound 5] displayed an IC50 at cloned human V2 receptor of 0.76 µM. Further, the “Receptor Binding (% Inh. @ concentration in μM) V1a” value on vasopressin V1a receptor (10 μM test compound) amounted to 13% @ 10.
On to “2-(2-Hydroxyethyl)-5-(4-(2-phenylbenzoylamino)benzoyl)-1,5-benzothiazepine [Compound 26]”, for which the IC50 at cloned human V2 receptor worked out at 0.007 µM; on vasopressin V1a receptor, 0.027 µM.
As to `COC(=O)CC1CCN(C(=O)c2ccc(NC(=O)c3ccccc3-c3ccccc3)cc2)c2ccccc2S1` (stereo not shown) [Compound 37, 2-Methyl-[5-(4-(2-phenylbenzoylamino)benzoyl)-1,5-benzothiazepine]acetate], at cloned human V2 receptor, the IC50 was 0.05 µM. In addition, on vasopressin V1a receptor (0.1 μM test compound), the “Receptor Binding (% Inh. @ concentration in μM) V1a” value is reported as 17% @ .1.
For the molecule `COc1ccc(CNCCC2CC(=O)N(Cc3ccc(NC(=O)c4ccccc4C)cc3)c3ccccc3S2)c(OC)c1` (stereo not shown) [Compound 8], at cloned human V2 receptor (10 μM test compound), the “Receptor Binding (% Inh. @ concentration in μM) V2” value came to 32% @ 10. Also, the “Receptor Binding (% Inh. @ concentration in μM) V1a” value at vasopressin V1a receptor (10 μM test compound) is 33% @ 10.
Regarding `CN(C)CCC1CCN(C(=O)c2ccc(N)cc2)c2ccccc2S1` (stereo not shown) [Compound 12], the “Receptor Binding (% Inh. @ concentration in μM) V2” value on cloned human V2 receptor (10 μM test compound) is 6% @ 10. Besides, the “Receptor Binding (% Inh. @ concentration in μM) V1a” value on vasopressin V1a receptor (10 μM test compound) amounted to 35% @ 10.
Consider `O=C(O)CC1CCN(C(=O)c2ccc(NC(=O)c3ccccc3-c3ccccc3)cc2)c2ccccc2[S+]1[O-]` (stereo not shown) [Compound 24, 2-Carboxymethyl-1-oxo-5-(4-(2-phenylbenzoylamino)benzoyl)-1,5-benzothiazepine], for which the IC50 on cloned human V2 receptor was 0.108 µM. Also, the inhibition at 1 µM at vasopressin V1a receptor (1 μM test compound) was 0%.
On to “2-[N-(tert-butoxycarbonyl)-ethyl]-5-[4-(2-methylbenzoylamino)-benzyl]-1,5-benzothiazepine-4-one [Compound 6]”, for which the “Receptor Binding (% Inh. @ concentration in μM) V2” value at cloned human V2 receptor (10 μM test compound) was found to be 22% @ 10. In addition, at vasopressin V1a receptor (10 μM test compound), the “Receptor Binding (% Inh. @ concentration in μM) V1a” value is reported as 13% @ 10.
On cloned human V2 receptor, `O=C(Nc1ccc(C(=O)N2CCC(CCS(=O)(=O)O)Sc3ccccc32)cc1)c1ccccc1-c1ccccc1` (stereo not shown) [Compound 32, 2-Ethyl[5-[4-(2-phenylbenzoylamino)benzoyl]-1,5-benzothiazepin]sulfonic Acid] returned an IC50 of 0.012 µM. Moreover, the inhibition at 0.1 µM at vasopressin V1a receptor (0.1 μM test compound) amounted to 10%.
For “2-(2-Hydroxyethyl)-5-[2-chloro-4-(2-methyl-5-fluorobenzoylamino)benzoyl]-1,5-benzothiazepine [Compound 43]”, at cloned human V2 receptor, the 50% inhibitory concentration (IC50) worked out at 0.028 µM. For the same molecule, on vasopressin V1a receptor (0.1 μM test compound), the “Receptor Binding (% Inh. @ concentration in μM) V1a” value was 4% @ .1.
`O=C(Nc1ccc(C(=O)N2CCC(CCO)S(=O)(=O)c3ccccc32)cc1)c1ccccc1-c1ccccc1` (stereo not shown) [Compound 35, 2-(2-Hydroxyethyl)-1-dioxo-5-(4-(2-phenylbenzoylamino)-benzoyl)-1,5-benzothiazepine]: on cloned human V2 receptor (0.1 μM test compound), the “Receptor Binding (% Inh. @ concentration in μM) V2” value is 20% @ .1. Moreover, the “Receptor Binding (% Inh. @ concentration in μM) V1a” value at vasopressin V1a receptor (0.1 μM test compound) worked out at 2% @ .1.
Take “2-(2-Methanesulfonylethyl)-5-[(4-(2-phenylbenzoylamino)-benzyl)]-1,5-benzothiazepin-4-one [Compound 21]”: on cloned human V2 receptor (0.1 μM test compound), the “Receptor Binding (% Inh. @ concentration in μM) V2” value was 1% @ 0.1. The “Receptor Binding (% Inh. @ concentration in μM) V1a” value at vasopressin V1a receptor (0.1 μM test compound) turned out to be 5% @ 0.1.
For the molecule “2-(2-Hydroxyethyl)-5-(4-aminobenzenesulfonyl)-1,5-benzothiazepine [Compound 4]”, the “Receptor Binding (% Inh. @ concentration in μM) V2” value on cloned human V2 receptor (10 μM test compound) turned out to be 20% @ 10. Also, at vasopressin V1a receptor (10 μM test compound), the “Receptor Binding (% Inh. @ concentration in μM) V1a” value is recorded as 21% @ 10.
For `Cc1ccccc1C(=O)Nc1ccc(CN2C(=O)CC(CCO)Sc3ccccc32)cc1` (stereo not shown) [Compound 22, 2-(2-Hydroxyethyl)-5-(4-(2-methylbenzoylamino)benzyl)-1,5-benzothiazepine-4-one], the “Receptor Binding (% Inh. @ concentration in μM) V2” value on cloned human V2 receptor (1 μM test compound) was found to be 33% @ 1. The “Receptor Binding (% Inh. @ concentration in μM) V1a” value at vasopressin V1a receptor (1 μM test compound) is 54% @ 1.
`O=CCC1CCN(C(=O)c2ccc(NC(=O)c3ccccc3-c3ccccc3)cc2)c2ccccc2S1` (stereo not shown) [Compound 25, 2-[5-[4-(2-Phenylbenzoylamino)benzoyl]-1,5-benzothiazepine]acetaldehyde] gave an IC50 at cloned human V2 receptor of 0.014 µM. For the same molecule, on vasopressin V1a receptor (1 μM test compound), the inhibition at 1 µM amounted to 30%.
`Cc1ccccc1C(=O)Nc1ccc(C(=O)N2CCC(CCN)Sc3ccccc32)cc1` (stereo not shown) [Compound 15, 2-(2-Aminoethyl)-5-[4-(2-methylbenzoylamino)benzoyl]-1,5-benzothiazepine]: the “Receptor Binding (% Inh. @ concentration in μM) V2” value on cloned human V2 receptor (1 μM test compound) worked out at 47% @ 1. For the same molecule, the “Receptor Binding (% Inh. @ concentration in μM) V1a” value at vasopressin V1a receptor (1 μM test compound) was 42% @ 1.
Consider `CC(C)(N)C(=O)NCCC1CCN(C(=O)c2ccc(NC(=O)c3ccccc3-c3ccccc3)cc2)c2ccccc2S1.Cl` (stereo not shown) [Compound 39, 2-[2-Amino-2-methylpropionamido]-ethyl-5-[4-(2-phenylbenzoylamino)benzoyl]-1,5-benzothiazepine Hydrochloride], for which, on cloned human V2 receptor, the IC50 came out at 0.017 µM. Also, on vasopressin V1a receptor (concentration not given), the “Receptor Binding (% Inh. @ concentration in μM) V1a” value came to 0%.
Turning to `Cc1ccccc1C(=O)Nc1ccc(C(=O)N2CCC(CCN(C)C)Sc3ccccc32)cc1` (stereo not shown) [Compound 9], the “Receptor Binding (% Inh. @ concentration in μM) V2” value at cloned human V2 receptor (10 μM test compound) stood at 63% @ 10. The IC50 at vasopressin V1a receptor was determined as 1.5 µM.
“2-(2-Hydroxyethyl)-5-(4-(2-phenylbenzoylamino)benzoyl)-1,5-benzothiazepine [Compound 27]”: the IC50 was 0.014 µM on cloned human V2 receptor and 0.091 µM at vasopressin V1a receptor.
For “2-(2-Aminoethyl)-5-[4-(2-phenylbenzoylamino)benzoyl]-1,5-benzothiazepine [Compound 28]”, the “Receptor Binding (% Inh. @ concentration in μM) V2” value on cloned human V2 receptor (0.1 μM test compound) stood at 46% 0.1. Further, the “Receptor Binding (% Inh. @ concentration in μM) V1a” value at vasopressin V1a receptor (0.1 μM test compound) was 19% @ .1.
In the case of `Cc1ccccc1C(=O)Nc1ccc(S(=O)(=O)N2CCC(CCN(C)C)Sc3ccccc32)cc1` (stereo not shown) [Compound 2, 2-(2-Dimethylaminoethyl)-5-(4-(2-methylbenzoylamino)-benzenesulfonyl]-1,5-benzothiazepine], the “Receptor Binding (% Inh. @ concentration in μM) V2” value on cloned human V2 receptor (25 μM test compound) was determined as 34% @ 25. Besides, on vasopressin V1a receptor (25 μM test compound), the “Receptor Binding (% Inh. @ concentration in μM) V1a” value is recorded as 29% @ 25.
As for `O=C(Nc1ccc(C(=O)N2CCC(CCO)[S+]([O-])c3ccccc32)cc1)c1ccccc1-c1ccccc1` (stereo not shown) [Compound 36, 2-(2-hydroxyethyl)-1-oxo-5-(4-(2-phenylbenzoylamino)-benzoyl)-1,5-benzothiazepine], the “Receptor Binding (% Inh. @ concentration in μM) V2” value at cloned human V2 receptor (0.1 μM test compound) came to 38% @ .1. In addition, on vasopressin V1a receptor (0.1 μM test compound), the “Receptor Binding (% Inh. @ concentration in μM) V1a” value is reported as 0 @ .1%.
As to “2-(2-Methanesulfonylethyl)-5-[(4-(2-phenylbenzoylamino)-benzenesulfonyl)]-1,5-benzothiazepine [Compound 20]”, the “Receptor Binding (% Inh. @ concentration in μM) V2” value on cloned human V2 receptor (1 μM test compound) is given as 6% @ 1. For the same molecule, at vasopressin V1a receptor (1 μM test compound), the “Receptor Binding (% Inh. @ concentration in μM) V1a” value was 24% @ 1.
